# Measurements taken from US11873291B2, “Quinoline cGAS antagonist compounds” (ImmuneSensor Therapeutics, Inc., priority 2020, dated 2024).
# Molecular target: T1, recombinant human cGAS (aa147-522) (Homo sapiens, UniProt Q8N884)
# T1 construct: recombinant human cGAS (aa147-522); His6-SUMO (cleaved yes); made in house; host or cells: E. coli BL21/pLys
# Assay: In vitro inhibition assay of cGAS activity (ATP consumption, KinaseGlo Max)
# Type: biochemical
# Details: Table 2, read-out: cGAS Inhibition Results IC50
# Outline: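 IC50 came from plotting % ATP consumption against log compound concentration, with leftover ATP detected by KinaseGlo Max chemiluminescence. Reactions ran 20 min at 37 °C with 1.5 μg/mL human cGAS (aa147-522), 6.6 μM ATP, 0.1 mM GTP and 0.01 mg/mL DNA at pH 7.5.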
# T1 sequence (Q8N884 147-522): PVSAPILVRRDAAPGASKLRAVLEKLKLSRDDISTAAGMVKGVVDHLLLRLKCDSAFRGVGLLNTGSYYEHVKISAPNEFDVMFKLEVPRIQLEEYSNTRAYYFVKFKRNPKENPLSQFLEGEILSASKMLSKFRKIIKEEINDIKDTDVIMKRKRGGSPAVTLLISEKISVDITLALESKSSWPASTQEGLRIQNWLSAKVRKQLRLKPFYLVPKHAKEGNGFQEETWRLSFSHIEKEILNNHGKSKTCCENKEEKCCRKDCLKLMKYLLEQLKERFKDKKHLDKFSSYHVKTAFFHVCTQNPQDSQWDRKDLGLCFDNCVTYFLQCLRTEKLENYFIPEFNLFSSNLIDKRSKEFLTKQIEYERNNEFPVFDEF
row,SMILES,IC50 [nM]
1,O=C(C[C@@H]1CCCN1c1cc(-n2ccnc2)c2ccc(Cl)c(Cl)c2n1)N[C@@H](C(=O)O)c1ccccc1 [I-388],2000 to 30000
2,NS(=O)(=O)CCNc1cc(-c2cn[nH]c2)c2c(Cl)cc(Cl)cc2n1 [I-263],> 30000
3,CN(CCO)c1cc(-c2cn[nH]c2)nc2c(Cl)c(Cl)ccc12 [I-297],> 30000
4,O=C1CC(Nc2cc(-n3ccnc3)c3ccc(Cl)cc3n2)CCN1 (stereo not shown) [I-365],> 30000
5,COC(=O)CCS(=O)(=O)NC[C@@H]1CCCN1c1cc(-n2ccnc2)c2ccc(Cl)c(Cl)c2n1 [I-390],2000 to 30000
6,O=C(O)C1CC(O)CN(c2cc(-n3ccnc3)c3ccc(Cl)cc3n2)C1 (stereo not shown) [I-135],> 30000
7,CN(CCO)c1cc(-c2cn[nH]c2)c2ccc(Cl)c(Cl)c2n1 [I-240],< 2000
8,C[C@@]1(C(=O)O)CCCN1c1cc(-n2ccnc2)c2ccc(Cl)c(Cl)c2n1 [I-436],2000 to 30000
9,O=C(O)CN(CC(=O)O)c1cc(-n2ccnc2)c2ccc(Cl)c(Cl)c2n1 [I-174],< 2000
10,O=C(O)[C@@H]1C[C@@H](F)CN1c1cc(-c2cn[nH]c2)c2ccc(Cl)c(Cl)c2n1 [I-430],< 2000
11,O=C(CO)N1CCOC(CNc2cc(-c3cn[nH]c3)c3ccc(Cl)c(Cl)c3n2)C1 (stereo not shown) [I-222],< 2000
12,CN(CCC(=O)N1CCCC(CO)C1)c1cc(-c2cn[nH]c2)c2ccc(Cl)c(Cl)c2n1 (stereo not shown) [I-199],2000 to 30000
13,"O=C(O)c1cc(-c2cc(-n3ccnc3)c3ccc(Cl)c(Cl)c3n2)ccc1O [I-42, 5-(7,8-dichloro-4-(1H-imidazol-1-yl)quinolin-2-yl)-2-hydroxybenzoic acid]",< 2000
14,O=C(O)C1CCCC(Nc2cc(-n3ccnc3)c3ccc(Cl)cc3n2)C1 (stereo not shown) [I-366],2000 to 30000
15,O=C(O)c1cc(OCCO)cc(-c2cc(-n3ccnc3)c3ccc(Cl)cc3n2)c1 [I-29],< 2000
16,O=C(O)[C@@H]1CCN1c1cc(-c2cn[nH]c2)c2ccc(Cl)c(Cl)c2n1 [I-352],2000 to 30000
17,"O=C(O)c1cc(-c2cc(-n3ccnc3)c3ccc(Cl)cc3n2)cnc1O [I-57, 5-(7-chloro-4-(1H-imidazol-1-yl)quinolin-2-yl)-2-hydroxynicotinic acid]",2000 to 30000
18,COc1c(C(=O)O)cccc1-c1cc(-n2ccnc2)c2ccc(Cl)c(Cl)c2n1 [I-45],2000 to 30000

# More lines, now with the values ahead:
row,IC50 [nM],SMILES
1,> 30000,Clc1cc(N2CCNCC2)c2ccc(Cl)c(Cl)c2n1 [I-312]
2,2000 to 30000,COC(=O)[C@@H]1C[C@@H](O)CN1c1cc(-c2cn[nH]c2)c2ccc(Cl)c(Cl)c2n1 [I-434]
3,< 2000,C[C@@H](Nc1cc(-c2cn[nH]c2)nc2c(Cl)c(Cl)ccc12)C(=O)O [I-286]
4,< 2000,"O=C(O)C1CN(c2cc(-n3ccnc3)c3ccc(Cl)c(Cl)c3n2)CCN1 (stereo not shown) [I-79, 4-(7,8-Dichloro-4-(1H-imidazol-1-yl)quinolin-2-yl)piperazine-2-carboxylic acid]"
5,< 2000,O=S(=O)(O)CCNc1cc(-n2ccnc2)c2ccc(Cl)c(Cl)c2n1 [I-158]
6,2000 to 30000,CC(=O)NCCN(C)c1cc(-n2ccnc2)c2ccc(Cl)cc2n1 [I-236]
7,> 30000,N#Cc1cn(-c2cc(-c3ccccc3)nc3cc(Cl)ccc23)cn1 [I-62]
8,2000 to 30000,"Clc1ccc2c(-n3ccnc3)cc(OCc3ccccc3)nc2c1 [I-277, 2-(benzyloxy)-7-chloro-4-(1H-imidazol-1-yl)quinoline]"
9,< 2000,"O=P(O)(O)OC1CCCN(c2cc(-n3ccnc3)c3ccc(Cl)c(Cl)c3n2)C1 (stereo not shown) [I-112, 1-(7,8-dichloro-4-(1H-imidazol-1-yl)quinolin-2-yl)piperidin-3-yl dihydrogen phosphate]"
10,< 2000,"OB(O)C1CCCN(c2cc(-n3ccnc3)c3ccc(Cl)c(Cl)c3n2)C1 (stereo not shown) [I-120, (1-(7,8-Dichloro-4-(1H-imidazol-1-yl)quinolin-2-yl)piperidin-3-yl)boronic acid]"
11,> 30000,"O=C(O)c1cc(-c2cc(-n3ccnc3)c3ccc(Cl)cc3n2)ccc1O [I-16, 5-(7-chloro-4-(1H-imidazol-1-yl)quinolin-2-yl)-2-hydroxybenzoic acid]"
12,2000 to 30000,"COc1ncc(-c2cc(-n3ccnc3)c3ccc(Cl)cc3n2)cc1C(=O)O [I-33, 5-(7-chloro-4-(1H-imidazol-1-yl)quinolin-2-yl)-2-methoxynicotinic acid]"
13,< 2000,CC(=O)N[C@@H]1C[C@@H](C(=O)O)N(c2cc(-n3ccnc3)c3ccc(Cl)c(Cl)c3n2)C1 [I-347]

# Same assay, conditions: Table 3, read-out: cGAS Inhibition Results IC50
row,SMILES,IC50 [nM]
1,"CN(CCS(=O)(=O)NCCO)c1cc(-n2ccnc2)c2ccc(Cl)c(Cl)c2n1 [I-624, 2-((7,8-dichloro-4-(1H-imidazol-1-yl)quinolin-2-yl)(methyl)amino)-N-(2-hydroxyethyl)ethane-1-sulfonamide]",< 2000
2,O=C(O)[C@@H]1CN(c2cc(-n3ccnc3)c3ccc(Cl)c(Cl)c3n2)CCO1 [I-521],< 2000
3,CC(C)(C)OC(=O)[C@H]1CCCN1C(=O)C[C@@H]1CCCN1c1cc(-n2ccnc2)c2ccc(Cl)c(Cl)c2n1 [I-522],2000 to 30000
4,O=C(O)[C@H]1[C@H](O)CCN1c1cc(-n2ccnc2)c2ccc(Cl)c(Cl)c2n1 [I-498],2000 to 30000
5,COC(=O)C12CC(C)(CN1c1cc(-n3ccnc3)c3ccc(Cl)c(Cl)c3n1)C2 [I-580],> 30000
6,O=C(NC12CC(C(=O)O)(C1)C2)[C@@H]1CCCN1c1cc(-n2ccnc2)c2ccc(Cl)c(Cl)c2n1 [I-551],> 30000
7,CC(C)(NC(=O)C[C@@H]1CCCN1c1cc(-n2ccnc2)c2ccc(Cl)c(Cl)c2n1)C(=O)O [I-527],< 2000
8,O=C1CC2CCCC(C1)N2c1cc(-n2ccnc2)c2ccc(Cl)c(Cl)c2n1 [I-491],< 2000
9,O=C(O)[C@@H]1CCCN1C(=O)[C@@H]1CCCN1c1cc(-n2ccnc2)c2ccc(Cl)c(Cl)c2n1 [I-552],< 2000
10,N[C@@H]1C[C@@H](C(=O)O)N(c2cc(-n3ccnc3)c3ccc(Cl)c(Cl)c3n2)C1 [I-519],< 2000
11,CN(CCS(=O)(=O)NCCC(=O)O)c1cc(-n2ccnc2)c2ccc(Cl)c(Cl)c2n1 [I-630],< 2000
12,CC1(C)C[C@@H](C(=O)O)N(c2cc(-n3ccnc3)c3ccc(Cl)c(Cl)c3n2)C1 [I-479],< 2000
13,CON(C)C(=O)[C@@H]1CCCN1c1cc(-n2ccnc2)c2ccc(Cl)c(Cl)c2n1 [I-542],2000 to 30000

# Other lines, results leading:
row,IC50 [nM],SMILES
1,2000 to 30000,O=C(O)c1cccn1-c1cc(-n2ccnc2)c2ccc(Cl)c(Cl)c2n1 [I-506]
2,2000 to 30000,COc1cccc2c(-c3cn[nH]c3)cc(N3CCC[C@H]3COCCC(=O)O)nc12 [I-859]
3,2000 to 30000,O=C(O)c1ccc(C2CCCN2c2cc(-n3ccnc3)c3ccc(Cl)c(Cl)c3n2)s1 (stereo not shown) [I-468]
4,< 2000,O=C(O)c1ccnn1CC[C@@H]1CCCN1c1cc(-n2ccnc2)c2ccc(Cl)c(Cl)c2n1 [I-729]
5,2000 to 30000,"CC(C)N(CCCOc1ccc(Cl)cc1C(=O)O)c1cc(-n2ccnc2)c2ccc(Cl)c(Cl)c2n1 [I-848, 5-chloro-2-(3-((7,8-dichloro-4-(1H-imidazol-1-yl)quinolin-2-yl)(isopropyl)amino)propoxy) benzoic acid]"
6,> 30000,O=C(O)CCOC[C@@H]1CCCN1c1cc(-c2cc[nH]n2)c2ccc(Cl)c(Cl)c2n1 [I-823]
7,2000 to 30000,CC(C)COC(=O)[C@@H]1[C@@H](O)CCN1c1cc(-n2ccnc2)c2ccc(Cl)c(Cl)c2n1 [I-602]
8,2000 to 30000,CN(CCNC(=O)c1cccc(O)c1)c1cc(-n2ccnc2)c2ccc(Cl)c(Cl)c2n1 [I-619]
